Assays:
RORγ = molecular target: T1, RORγ (Homo sapiens, UniProt P51449); test: Gal4-RORγ co-transfection promoter-reporter assay; details: cell-based promoter-reporter Gal4 assay format, HEK293T cells
T1 sequence (P51449 269-518 limits assumed): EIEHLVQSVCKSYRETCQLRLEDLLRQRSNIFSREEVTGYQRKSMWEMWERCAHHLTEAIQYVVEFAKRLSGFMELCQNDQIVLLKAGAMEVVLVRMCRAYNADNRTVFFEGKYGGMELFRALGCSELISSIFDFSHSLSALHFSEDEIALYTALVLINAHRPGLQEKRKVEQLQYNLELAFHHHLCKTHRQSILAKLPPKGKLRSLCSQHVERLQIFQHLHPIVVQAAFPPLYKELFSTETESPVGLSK

RORα = test: Gal4-RORα co-transfection promoter-reporter assay; assay type: cell-based; details: Gal4 assay format
Procedure: (§1) Reporter gene assays: Twenty-four hours before transfection, HEK293T cells were plated in 96-well plates at a density of 15×10^3 cells per well. UAS:luciferase reporter and Ga14-RORa, Gal4-RORb, Gal4-RORγ, Gal4-LXRα, or Gal4 PPARγ DNA co-transfections were performed using X-tremeGENE 9 (Roche). Twenty-four hours after transfection, the cells were treated with vehicle or compound. Twenty-four hours after treatment, the luciferase activity was measured using the Dual-Glo luciferase assay system (Promega). Results were analyzed using GraphPad Prism software.

RORβ = test: Gal4-RORβ co-transfection promoter-reporter assay; assay type: cell-based; details: Gal4 assay format
Procedure: as §1

LXRα = molecular target: T2, LXRα (Homo sapiens, UniProt Q13133); test: Gal4-LXRα co-transfection promoter-reporter assay; assay type: cell-based; details: HEK293T cells, read-out: LXR agonist activity EC50
T2 sequence (Q13133 209-447 limits assumed): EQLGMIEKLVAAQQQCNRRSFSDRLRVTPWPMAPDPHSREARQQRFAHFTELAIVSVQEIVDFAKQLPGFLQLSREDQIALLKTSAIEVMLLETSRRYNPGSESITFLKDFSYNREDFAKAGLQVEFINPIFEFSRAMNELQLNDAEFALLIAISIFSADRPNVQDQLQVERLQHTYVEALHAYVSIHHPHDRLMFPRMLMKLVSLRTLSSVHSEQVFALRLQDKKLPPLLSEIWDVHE
From the text: FIGS. 1A to 1E: Pan modulator with poly-pharmacology. […] FIG. 1D is a graph showing PPARγ target genes (aP2 and CD36) expression in OP9 cells with and without MDI (IBMX, dexamethasone, insulin) treatment. […] SR1903 is represented as orange sticks while PPARγ, RORγ, and LXRβ are depicted as blue ribbons respectively. Specific residues driving the interaction labelled and shown as sticks as well. […] FIG. 1F are graphs showing RORγ target genes (IL17A and IL17F) expression in EL4 cells.
as §1

EL4 cells = test: RORγ target gene expression in PMA/ionomycin stimulated EL4 cells; assay type: cell-based; details: PMA and ionomycin, compound at 10 μM
From the text: FIG. 1D is a graph showing PPARγ target genes (aP2 and CD36) expression in OP9 cells with and without MDI (IBMX, dexamethasone, insulin) treatment. […] Specific residues driving the interaction labelled and shown as sticks as well. […] Quantitative RT-PCR: Total RNA was extracted from EL4 or RAW264.7 cells using RNeasy Plus Micro Kit (Qiagen) and the RNA was reverse transcribed using the ABI reverse transcription kit (Applied Biosystems/Thermo Fisher Scientific, Waltham MA). Quantitative PCR was performed with a 7900HT Fast Real Time PCR System (Applied Biosystems) using SYBR green (Roche).

TREM-1 [1] = test: TREM-1 gene expression in LPS-stimulated RAW264.7 cells (RNA sequencing, qPCR); assay type: cell-based, mouse; details: 26 hr exposure
Procedure: (§2) FIG. 2B are graphs showing TREM-1 gene expression by q-PCR. […] All experiments were performed with 3 biological replicates and the median value of TREM-1 fluorescence was represented by the graph on the bottom.
Quantitative RT-PCR: Total RNA was extracted from EL4 or RAW264.7 cells using RNeasy Plus Micro Kit (Qiagen) and the RNA was reverse transcribed using the ABI reverse transcription kit (Applied Biosystems/Thermo Fisher Scientific, Waltham MA). Quantitative PCR was performed with a 7900HT Fast Real Time PCR System (Applied Biosystems) using SYBR green (Roche).
mRNA sequencing analysis: RAW264.7 cells RNA extraction protocol for RNA seq was derived from Qiagen Kit-74106. Total RNA was quantified using the Qubit 2.0 Fluorometer (Invitrogen, Carlsbad, CA) and run on the Agilent 2100 Bioanalyzer (Agilent Technologies, Santa Clara, CA) for quality assessment. RNA samples of good quality with RNA Integrity Number (RIN)>8.0 were further processed. A RNase-free working environment was maintained and RNase-free tips, Eppendorf tubes and plates were utilized for the subsequent steps. Messenger RNA was selectively isolated from total RNA (300 ng input) using poly-T oligos attached to magnetic beads and converted to sequence-ready libraries using the TruSeq stranded mRNA sample prep protocol (Cat. #: RS-122-2101, Illumina, San Diego, CA). The final libraries were validated on the bioanalyzer DNA chips and qPCR quantified using primers that recognize the illumina adaptors. The libraries were then pooled at equimolar ratios, quantified using qPCR and loaded onto the NextSeq 500 flow cell at 1.8 pM final concentration. They were sequenced using the high-output, paired-end, 75-bp chemistry. Demultiplexed and quality filtered raw reads (fastq) generated from the NextSeq 500 were trimmed (adaptor sequences) using Flexbar 2.4 and aligned to the mouse reference database (mm9) using TopHat version 2.0.9 (Trapnell et al., 2009). HTseq-count version 0.6.1 was used to generate gene counts and differential gene expression analysis was performed using Deseq2 (Anders and Huber, 2010).

TREM-1 [2] = test: TREM-1 surface expression by FACS in LPS-stimulated RAW264.7 cells; assay type: cell-based, mouse; details: 50 hr incubation
Procedure: as §2
Flow cytometry and antibodies: For the analysis of macrophage activation, RAW264.7 cells (American Type Culture Collection) were pre-incubated with 5 μM 1903 for 18 h then stimulated with 1 μg/mL LPS (Escherichia coli 0127:B8, Sigma-Aldrich (St. Louis, MO)) for 6 h. RAW264.7 cells were stained with APC conjugated anti-TREM-1 antibody (eBioscience). Cell sorting was performed using LSRII (BD Bioscience).

[3] = tested on: collagen-induced arthritis; test: Collagen-induced arthritis (CIA) mouse model; details: for enlargement of the liver: CIA mice, 20 mg/kg
Procedure: Clinical score was monitored every day after boosting during 18 days. […] The dosage of all compounds was identical in each group.
Briefly, DBA/1J mice were injected with chicken type II collagen on day 1 and then each animal received a boost injection of collagen on Day 21. Compound treatment, initiated on day 3-post boost injection, was administered intraperitoneally at 20 mg/kg twice-a-day for a total of 16 days. […] Mice: All mice were maintained in a specific pathogen-free environment in accordance with institutional protocol. […] Female DBA/1J mice were purchased from Taconic. CIA was induced in 8 weeks as previously described^40.

[4] = tested on: collagen-induced arthritis; details: Chang et al. (2014); cited from earlier work
TH17 cells = details: Chang et al. study; cited from earlier work

Structure (SMILES)	IC50 (RORγ) [µM]	activity on RORα (RORα)	activity on RORβ (RORβ)	EC50 (LXRα) [µM]	IL17F expression (EL4 cells)	LPS induction of TREM-1 gene expression (qPCR) (TREM-1 [1])	LPS-induced TREM1 cell surface expression (TREM-1 [2])	enlargement of the liver [3]	arthritis clinical score ([3]; Day 34, 20 mg/kg i.p. twice-a-day, vehicle 13.6±2.9)	therapeutic effect in CIA mice [4]	IL-17 and IL-23R expression (TH17 cells)	TH17 cell differentiation (TH17 cells)
O=C(O)Cc1cccc(OCCCN(Cc2cccc(C(F)(F)F)c2Cl)CC(c2ccccc2)c2ccccc2)c1 [GW3965, reference compound]	43	lack activity	lack activity	0.154	lacked the ability to repress	significantly repressed	only modestly dampened	did not cause enlargement of the liver	only very modest effects	–	–	–
OC(c1ccc(-c2ccc(CN3CCN(Cc4ccncc4)CC3)cc2)c(F)c1)(C(F)(F)F)C(F)(F)F [SR2211]	–	–	–	–	–	–	–	–	–	robust therapeutic effect	reduced	inhibited
O=S(=O)(c1ccccc1)N(CC(F)(F)F)c1ccc(C(O)(C(F)(F)F)C(F)(F)F)cc1 [T0901317, N-(2,2,2-trifluoroethyl)-N-[4-[2,2,2-trifluoro-1-hydroxy-1-(trifluoromethyl)ethyl]phenyl]-benzenesulfonamide, reference compound]	–	–	–	–	–	–	–	negative effect on liver	–	–	–	–

Reference: patent US12370193B2, “Method of inhibiting TREM-1” (UNIVERSITY OF FLORIDA RESEARCH FOUNDATION, INCORPORATED, priority 2019, dated 2025)
